The target of this experiment is hMC2 receptor (Homo sapiens, UniProt Q01718). Put plainly: hMC2 membrane binding assay ([125I]ACTH (1-39) Tyr23, SPA). As to conditions: crude hMC2R membranes from CRE-bla-CHO-K1 cells expressing hMC2 receptor and hMRAP; [125I]ACTH (1-39) Tyr23 0.2 nM; 1.5 hours at room temperature; read-out: MC2R binding potency. More on the design: scale not given here. A digest of the protocol: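 Ki comes from non-linear regression of SPA scintillation counts. Displacement of 0.2 nM [125I]ACTH(1-39) Tyr23 by compound dose series (usually 0–10,000 nM final) ran 1.5 h at room temperature. Membranes came from CHO-K1 CRE-bla cells stably expressing hMC2R plus hMRAP, bead-coupled in pH 7.4 buffer with 0.2% BSA.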
Sequence of hMC2 receptor (Q01718 whole entry): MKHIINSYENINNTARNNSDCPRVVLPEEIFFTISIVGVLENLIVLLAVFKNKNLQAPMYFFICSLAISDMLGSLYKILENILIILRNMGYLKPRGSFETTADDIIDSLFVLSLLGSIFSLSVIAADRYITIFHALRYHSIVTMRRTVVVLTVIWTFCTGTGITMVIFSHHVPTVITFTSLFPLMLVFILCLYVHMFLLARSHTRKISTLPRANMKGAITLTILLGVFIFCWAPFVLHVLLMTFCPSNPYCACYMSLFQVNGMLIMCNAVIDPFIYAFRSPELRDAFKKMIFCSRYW
Sequence of hMC2 receptor (Q8TCY5 whole entry partner): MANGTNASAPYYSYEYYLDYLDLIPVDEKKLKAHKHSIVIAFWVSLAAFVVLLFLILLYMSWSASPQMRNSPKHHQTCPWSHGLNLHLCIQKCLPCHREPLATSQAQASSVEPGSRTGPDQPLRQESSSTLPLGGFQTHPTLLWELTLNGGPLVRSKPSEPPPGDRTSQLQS

Some results are limits rather than exact numbers.

Turning to `CCOc1ncccc1-c1ccc(N2CCN(C(=O)C3(C(F)(F)F)CCCCC3)C[C@H]2CC)c(C(=O)N[C@@H]2CCNC2)n1` [Compound 1-273, 2′-ethoxy-5-[(2R)-2-ethyl-4-[1-(trifluoromethyl)cyclohexanecarbonyl]piperazin-1-yl]-N-[(3R)-pyrrolidin-3-yl]-[2,3′-bipyridine]-6-carboxamide], the Ki is less than 10 nM.
The same measure for `CCOc1ncccc1-c1ccc(N2CCN(C(=O)c3ccc(OC)cc3C(F)(F)F)C[C@H]2CC)c(C(=O)NCC2=NCCN2)c1F` [Compound 1-170, N-[(4,5-dihydro-1H-imidazol-2-yl)methyl]-3-(2-ethoxypyridin-3-yl)-6-[(2R)-2-ethyl-4-[4-methoxy-2-(trifluoromethyl)benzoyl]piperazin-1-yl]-2-fluorobenzamide]: less than 10 nM; for `CCOc1ncccc1-c1ccc(N2CCN(C(=O)N3CCC[C@H]3C(F)(F)F)C[C@H]2CC)c(C(=O)N[C@@H]2CCNC2)n1` [Compound 1-306, 2′-ethoxy-5-[(2R)-2-ethyl-4-[(2S)-2-(trifluoromethyl)pyrrolidine-1-carbonyl]piperazin-1-yl]-N-[(3R)-pyrrolidin-3-yl]-[2,3′-bipyridine]-6-carboxamide]: less than 10 nM.
The same measure for `CCOc1ncccc1-c1ccc(N2CCN(C(=O)c3ccc(F)cc3C(F)(F)F)C[C@H]2CC)c(C(=O)NCCN)c1` [Compound 1-58, N-(2-aminoethyl)-5-(2-ethoxypyridin-3-yl)-2-[(2R)-2-ethyl-4-[4-fluoro-2-(trifluoromethyl)benzoyl]piperazin-1-yl]benzamide]: less than 10 nM; for `CCOc1ncccc1-c1ccc(N2CCN(C(=O)c3ccc(Cl)cc3C(F)(F)F)C[C@H]2CC)c(C(=O)NCC2=NCCN2)c1` [Compound 1-125, 2-[(2R)-4-[4-chloro-2-(trifluoromethyl)benzoyl]-2-ethylpiperazin-1-yl]-N-[(4,5-dihydro-1H-imidazol-2-yl)methyl]-5-(2-ethoxypyridin-3-yl)benzamide]: less than 10 nM.
Under `CCOc1ncccc1-c1ccc(N2CCN(C(=O)C3(C(F)(F)F)CCCC3)C[C@H]2CC)c(C(=O)NC[C@H]2CCN2C)n1` [Compound 1-330, 2′-ethoxy-5-[(2R)-2-ethyl-4-[1-(trifluoromethyl)cyclopentanecarbonyl]piperazin-1-yl]-N-{[(2R)-1-methylazetidin-2-yl]methyl}-[2,3′-bipyridine]-6-carboxamide] stands less than 10 nM; under `CCOc1ncccc1-c1ccc(N2CCN(C(=O)[C@H]3CC[C@@H](C(F)(F)F)CC3)C[C@H]2CC)c(C(=O)N[C@@H]2CCNC2)n1` [Compound 1-299, 2′-ethoxy-5-[(2R)-2-ethyl-4-[cis-4-(trifluoromethyl)cyclohexanecarbonyl]piperazin-1-yl]-N-[(3R)-pyrrolidin-3-yl]-[2,3′-bipyridine]-6-carboxamide], less than 10 nM; under `CCOc1ncccc1-c1ccc(N2CCN(C(=O)N3CCCC3(C)C(F)(F)F)C[C@H]2CC)c(C(=O)N[C@@H]2CCNC2)n1` (stereo partly drawn) [Compound 1-326, 2′-ethoxy-5-[(2R)-2-ethyl-4-[2-methyl-2-(trifluoromethyl)pyrrolidine-1-carbonyl]piperazin-1-yl]-N-[(3R)-pyrrolidin-3-yl]-[2,3′-bipyridine]-6-carboxamide], less than 10 nM.
With `CCOc1ccccc1-c1ccc(N2CCN(C(=O)C3(C(F)(F)F)CCC3)C[C@H]2CC)c(C(=O)N[C@@H]2CN3CCC2CC3)n1` [Compound 1-410, N-[(3S)-1-azabicyclo[2.2.2]octan-3-yl]-6-(2-ethoxyphenyl)-3-[(2R)-2-ethyl-4-[1-(trifluoromethyl)cyclobutanecarbonyl]piperazin-1-yl]pyridine-2-carboxamide], the Ki is less than 10 nM.
The same measure for `CCOc1ncccc1-c1ccc(N2CCN(C(=O)c3ccc(OC)nc3C(F)(F)F)C[C@H]2CC)c(C(=O)N[C@@H]2CCNC2)n1` [Compound 1-240, 2′-ethoxy-5-[(2R)-2-ethyl-4-[6-methoxy-2-(trifluoromethyl)pyridine-3-carbonyl]piperazin-1-yl]-N-[(3R)-pyrrolidin-3-yl]-[2,3′-bipyridine]-6-carboxamide]: less than 10 nM; for `CCOc1ncccc1-c1ccc(N2CCN(C(=O)c3ccc(OC)nc3C(F)(F)F)C[C@H]2CC)c(C(=O)N[C@@H]2CCN(C)C2)n1` [Compound 1-239, 2′-ethoxy-5-[(2R)-2-ethyl-4-[6-methoxy-2-(trifluoromethyl)pyridine-3-carbonyl]piperazin-1-yl]-N-[(3R)-1-methylpyrrolidin-3-yl]-[2,3′-bipyridine]-6-carboxamide]: less than 10 nM; for `CCNc1ccc(C(=O)N2CCN(c3ccc(-c4cccnc4OCC)nc3C(=O)NCCNC)[C@H](CC)C2)c(C(F)(F)F)n1` [Compound 1-225, 2′-ethoxy-5-[(2R)-2-ethyl-4-[6-(ethylamino)-2-(trifluoromethyl)pyridine-3-carbonyl]piperazin-1-yl]-N-[2-(methylamino)ethyl]-[2,3′-bipyridine]-6-carboxamide]: less than 10 nM.
The same measure for `CCOc1ncccc1-c1ccc(N2CCN(C(=O)c3ccc(Cl)cc3C(F)(F)F)C[C@H]2CC)c(C(=O)NCCNC)c1` [Compound 1-46, 2-[(2R)-4-[4-chloro-2-(trifluoromethyl)benzoyl]-2-ethylpiperazin-1-yl]-5-(2-ethoxypyridin-3-yl)-N-[2-(methylamino)ethyl]benzamide]: less than 10 nM; for `CCOc1ncccc1-c1ccc(N2CCN(C(=O)c3ccc(Cl)cc3C(F)(F)F)C[C@H]2CC)c(C(=O)N[C@H]2CNC[C@H]2F)n1` [Compound 1-275, 5-[(2R)-4-[4-chloro-2-(trifluoromethyl)benzoyl]-2-ethylpiperazin-1-yl]-2′-ethoxy-N-[(3S,4R)-4-fluoropyrrolidin-3-yl]-[2,3′-bipyridine]-6-carboxamide]: less than 10 nM; for `CCOc1ncccc1-c1ccc(N2CCN(C(=O)c3ccc(Cl)cc3C(F)(F)F)C[C@H]2CC)c(C(=O)NC[C@@H]2CNCCO2)c1` [Compound 1-109, 2-[(2R)-4-[4-chloro-2-(trifluoromethyl)benzoyl]-2-ethylpiperazin-1-yl]-5-(2-ethoxypyridin-3-yl)-N-{[(2S)-morpholin-2-yl]methyl}benzamide]: less than 10 nM.
Under `CCOc1ccc(C(=O)N2CCN(c3ccc(-c4cccnc4OCC)nc3C(=O)NC[C@@H]3CCN3C)[C@H](CC)C2)c(C(F)(F)F)n1` [Compound 1-257, 2′-ethoxy-5-[(2R)-4-[6-ethoxy-2-(trifluoromethyl)pyridine-3-carbonyl]-2-ethylpiperazin-1-yl]-N-{[(2S)-1-methylazetidin-2-yl]methyl}-[2,3′-bipyridine]-6-carboxamide] stands less than 10 nM; under `CCOc1ncccc1-c1ccc(N2CCN(C(=O)c3ccc(Cl)cc3C(F)(F)F)C[C@H]2CC)c(C(=O)N[C@@H]2CCN(C)C2)c1` [Compound 1-48, 2-[(2R)-4-[4-chloro-2-(trifluoromethyl)benzoyl]-2-ethylpiperazin-1-yl]-5-(2-ethoxypyridin-3-yl)-N-[(3R)-1-methylpyrrolidin-3-yl]benzamide], less than 10 nM.
In the case of `CCOc1ncccc1-c1ccc(N2CCN(C(=O)c3ccc(Cl)cc3OC)C[C@H]2CC)c(C(=O)NCCN)c1` [Compound 1-54, N-(2-aminoethyl)-2-[(2R)-4-(4-chloro-2-methoxybenzoyl)-2-ethylpiperazin-1-yl]-5-(2-ethoxypyridin-3-yl)benzamide], the Ki was less than 10 nM.
Consider `CCOc1ncccc1-c1ccc(N2CCN(C(=O)c3ccc(OC)nc3C(F)(F)F)C[C@H]2CC)c(CN)n1` [Compound 2-31, 1-{2′-ethoxy-5-[(2R)-2-ethyl-4-[6-methoxy-2-(trifluoromethyl)pyridine-3-carbonyl]piperazin-1-yl]-[2,3′-bipyridin]-6-yl}methanamine], for which the Ki was less than 10 nM.
Under `CCOc1ccccc1-c1ccc(N2CCN(C(=O)N3CCC[C@H]3C(F)(F)F)C[C@H]2CC)c(C(=O)NCC2CN(C)C2)n1` [Compound 1-362, 6-(2-ethoxyphenyl)-3-[(2R)-2-ethyl-4-[(2S)-2-(trifluoromethyl)pyrrolidine-1-carbonyl]piperazin-1-yl]-N-[(1-methylazetidin-3-yl)methyl]pyridine-2-carboxamide] stands less than 10 nM; under `CCOc1ncccc1-c1ccc(N2CCN(C(=O)N3CCC[C@H]3C(C)(C)F)C[C@H]2CC)c(C(=O)N[C@@H]2CCN(C)C2)n1` [Compound 1-413, 2′-ethoxy-5-[(2R)-2-ethyl-4-[(2S)-2-(2-fluoropropan-2-yl)pyrrolidine-1-carbonyl]piperazin-1-yl]-N-[(3R)-1-methylpyrrolidin-3-yl]-[2,3′-bipyridine]-6-carboxamide], less than 10 nM.
Under `CC[C@@H]1CN(C(=O)c2ccc(C(F)(F)F)cc2Cl)CCN1c1ccc(-c2ccccc2Cl)cc1C(=O)NCCN` [Compound 1-6, N-(2-aminoethyl)-2′-chloro-4-[(2R)-4-[2-chloro-4-(trifluoromethyl)benzoyl]-2-ethylpiperazin-1-yl]-[1,1′-biphenyl]-3-carboxamide] stands 10 to 100 nM; under `CCOc1ncccc1-c1ccc(N2CCN(C(=O)C3(C(F)(F)F)CCCC3)C[C@H]2CC)c(C(=O)NC[C@@H]2CCCN2C)n1` [Compound 1-332, 2′-ethoxy-5-[(2R)-2-ethyl-4-[1-(trifluoromethyl)cyclopentanecarbonyl]piperazin-1-yl]-N-{[(2S)-1-methylpyrrolidin-2-yl]methyl}-[2,3′-bipyridine]-6-carboxamide], less than 10 nM; under `CCOc1ncccc1-c1ccc(N2CCN(C(=O)[C@H]3CC[C@@H](C(F)(F)F)CC3)C[C@H]2CC)c(C(=O)N[C@@H]2CCN(C)C2)n1` [Compound 1-286, 2′-ethoxy-5-[(2R)-2-ethyl-4-[cis-4-(trifluoromethyl)cyclohexanecarbonyl]piperazin-1-yl]-N-[(3R)-1-methylpyrrolidin-3-yl]-[2,3′-bipyridine]-6-carboxamide], less than 10 nM.

Values taken from patent publication US10981894B2, “Melanocortin subtype-2 receptor (MC2R) antagonists and uses thereof” (Crinetics Pharmaceuticals, Inc., priority 2018, dated 2021).
